Data as given in patent US20240124503A1, “HETEROAROMATIC PHOSPHONIUM SALTS AND THEIR USE TREATING CANCER” (FLORATEK PHARMA S.A., priority 2021, published 2024).

Assays:
ADCK3 = molecular target: T1, ADCK3 (Homo sapiens, UniProt Q8NI60); assay: KINOMEscan competition binding, ADCK3
T1 construct: purchased Eurofins (KINOMEscan); host or cells: E. coli BL21-derived host (T7 phage) or HEK-293
Method: (§1) Selected compounds were screened for kinase inhibition using the KINOMEscan™ assay (Eurofins) which is based on a competition binding assay that quantitatively measures the ability of a compound to compete with an immobilized, active-site directed ligand. The assay was performed by combining three components: DNA-tagged kinase; immobilized ligand; and the test compound. The ability of the test compound to compete with the immobilized ligand was measured via quantitative PCR of the DNA tag.
(§2) Kinase-tagged T7 phage strains were prepared in an E. coli host derived from the BL21 strain. E. coli were grown to log-phase and infected with T7 phage and incubated with shaking at 32° C. until lysis. The lysates were centrifuged and filtered to remove cell debris. The remaining kinases were produced in HEK-293 cells and subsequently tagged with DNA for qPCR detection. Streptavidin-coated magnetic beads were treated with biotinylated small molecule ligands for 30 minutes at room temperature to generate affinity resins for kinase assays. […] Kds were determined using an 11-point 3-fold compound dilution series with three DMSO control points. […] The kinase concentration in the eluates was measured by qPCR. […]
(§3) Binding constants (Kds) were calculated with a standard dose-response curve using the Hill equation: Response=Background+[Signal−Background/1+(Kd^Hill Slope/Dose^Hill Slope)] […]

TIE2 = molecular target: T2, TIE2 (Homo sapiens, UniProt Q02763); assay: KINOMEscan competition binding, TIE2
T2 construct: purchased Eurofins (KINOMEscan); host or cells: E. coli BL21-derived host (T7 phage) or HEK-293
Method: as §1, §2, §3

T1 sequence (Q8NI60 163-647): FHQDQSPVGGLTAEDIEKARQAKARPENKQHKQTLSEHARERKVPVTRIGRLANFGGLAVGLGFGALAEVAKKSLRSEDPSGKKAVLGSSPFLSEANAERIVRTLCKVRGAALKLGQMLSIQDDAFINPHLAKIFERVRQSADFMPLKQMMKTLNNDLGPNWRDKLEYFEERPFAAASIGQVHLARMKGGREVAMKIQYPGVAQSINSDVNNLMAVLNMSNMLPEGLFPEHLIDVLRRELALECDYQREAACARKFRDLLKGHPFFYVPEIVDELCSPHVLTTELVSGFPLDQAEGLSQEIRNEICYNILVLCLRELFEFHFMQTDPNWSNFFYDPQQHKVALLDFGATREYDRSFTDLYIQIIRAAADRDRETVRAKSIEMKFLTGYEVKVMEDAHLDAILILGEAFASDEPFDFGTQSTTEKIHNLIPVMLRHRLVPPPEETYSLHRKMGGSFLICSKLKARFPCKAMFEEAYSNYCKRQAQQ
T2 sequence (Q02763 23-1124): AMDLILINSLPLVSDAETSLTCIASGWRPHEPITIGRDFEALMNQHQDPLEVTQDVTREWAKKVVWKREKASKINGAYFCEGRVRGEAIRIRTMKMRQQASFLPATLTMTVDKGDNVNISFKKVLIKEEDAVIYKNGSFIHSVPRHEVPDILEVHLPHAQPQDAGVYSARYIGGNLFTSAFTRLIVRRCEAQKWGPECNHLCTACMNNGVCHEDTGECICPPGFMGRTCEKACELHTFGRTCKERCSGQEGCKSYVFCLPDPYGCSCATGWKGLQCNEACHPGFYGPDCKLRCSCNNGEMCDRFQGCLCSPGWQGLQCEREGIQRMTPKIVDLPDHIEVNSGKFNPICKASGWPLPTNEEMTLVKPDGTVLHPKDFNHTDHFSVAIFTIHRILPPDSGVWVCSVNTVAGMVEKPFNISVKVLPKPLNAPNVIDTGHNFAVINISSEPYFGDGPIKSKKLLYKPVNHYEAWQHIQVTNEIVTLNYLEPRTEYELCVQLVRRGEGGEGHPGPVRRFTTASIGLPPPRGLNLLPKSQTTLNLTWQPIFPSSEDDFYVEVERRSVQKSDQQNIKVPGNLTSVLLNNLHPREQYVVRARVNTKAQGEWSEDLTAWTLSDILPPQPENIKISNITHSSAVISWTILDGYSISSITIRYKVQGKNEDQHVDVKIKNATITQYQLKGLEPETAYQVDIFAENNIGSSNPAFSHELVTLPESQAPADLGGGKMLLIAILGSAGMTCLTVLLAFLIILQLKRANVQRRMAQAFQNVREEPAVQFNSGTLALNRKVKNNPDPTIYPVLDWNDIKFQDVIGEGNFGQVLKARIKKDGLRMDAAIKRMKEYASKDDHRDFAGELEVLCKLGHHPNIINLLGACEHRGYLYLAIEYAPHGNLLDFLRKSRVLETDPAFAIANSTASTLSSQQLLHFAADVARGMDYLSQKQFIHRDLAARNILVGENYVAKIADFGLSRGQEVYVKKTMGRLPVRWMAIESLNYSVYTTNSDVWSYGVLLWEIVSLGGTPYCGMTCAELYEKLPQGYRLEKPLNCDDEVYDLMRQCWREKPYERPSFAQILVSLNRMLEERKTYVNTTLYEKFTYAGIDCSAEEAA

Kd (ADCK3): 100 nM | Kd (TIE2): 40 nM
Structure (SMILES): COc1c(O)ccc2c(=O)c(O)c(-c3ccc(CCCC[P+](c4ccccc4)(c4ccccc4)c4ccccc4)cc3)oc12 [SND190, (4-(4-(3,7-Dihydroxy-8-methoxy-4-oxo-4H1-chromen-2-yl)phenyl)butyl)triphenylphosphonium bromide]
